Results reported in patent US8765746B2 (Millennium Pharmaceuticals, Inc., priority 2010, dated 2014).

Assays:
Type in all cases: biochemical
PI3Kalpha = biological target: T1, PI3Kalpha (Homo sapiens, UniProt P42336); experiment: Human PI3Kα enzyme assay (HTRF); details: for inhibition at 1.11 µM: read-out: PI3Kalpha % inh; for PI3Kalpha % inh: at 1.11 μM
T1 construct: His (N); host or cells: SF9 insect cells (baculovirus)
Summary of the method: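 His-tagged p110α co-expressed with p85 in Sf9 cells was reacted for 30 min at room temperature in pH 7.00 Hepes buffer with 10 mM MgCl2. Addition solutions held 25 uM ATP, 3.5 uM di-C8 PI(4,5)P2 and 0.4875 nM enzyme. The reaction was quenched with EDTA/biotin-PIP3 and detected by HTRF (GST-GRP-1 PH domain, streptavidin-XL, Eu anti-GST) after 1 h.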

VPS34 = biological target: T2, VPS34 (Homo sapiens, UniProt Q8NEB9); experiment: Human VPS34 enzyme assay (Adapta Universal Kinase Assay); details: for inhibition at 1.11 µM: 1 h, read-out: VPS34 % ihn
T2 construct: GST (N); host or cells: SF9 insect cells (baculovirus)
Summary of the method: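 Human VPS34, N-terminally GST-tagged and baculovirus-expressed in Sf9 cells. Solution with 20 uM ATP and 200 uM PI-PS added, then one with 5 nM enzyme (levels in each added solution), in buffer with 2 mM DTT and 2 mM MnCl2; 1 h at room temperature. ADP read by Adapta TR-FRET (Eu anti-ADP antibody, Alexa Fluor 647 tracer).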

PI3Kgamma = biological target: T3, PI3Kgamma (Homo sapiens, UniProt P48736); experiment: Human PI3K gamma enzyme assay (HTRF, as for PI3K alpha); details: read-out: PI3Kgamma % inh
T3 construct: His (N); host or cells: SF9 insect cells (baculovirus)
Summary of the method: (§1)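 N-His p110β/δ co-expressed with untagged p85 in Sf9, p110γ alone. Enzyme 5.25 nM (β), 0.75 nM (δ), 5 nM (γ), with ATP 25 uM and di-C8 PI(4,5)P2 3.5 uM (added-solution levels), pH 7.00, 30 min RT. HTRF read-out: biotin-PIP3, GST-GRP-1 PH domain, Eu anti-GST, streptavidin-XL.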

PI3Kbeta = biological target: T4, PI3Kbeta (Homo sapiens, UniProt P42338); experiment: Human PI3K beta enzyme assay (HTRF, as for PI3K alpha); details: at 1.11 μM; for inhibition at 1.11 µM: read-out: PI3Kbeta % inh
T4 construct: His (N); host or cells: SF9 insect cells (baculovirus)
Summary of the method: as §1

PI3Kdelta = biological target: T5, PI3Kdelta (Homo sapiens, UniProt O00329); experiment: Human PI3K delta enzyme assay (HTRF, as for PI3K alpha); details: read-out: PI3Kdelta % inh
T5 construct: His (N); host or cells: SF9 insect cells (baculovirus)
Summary of the method: as §1

T1 sequence (P42336 whole entry): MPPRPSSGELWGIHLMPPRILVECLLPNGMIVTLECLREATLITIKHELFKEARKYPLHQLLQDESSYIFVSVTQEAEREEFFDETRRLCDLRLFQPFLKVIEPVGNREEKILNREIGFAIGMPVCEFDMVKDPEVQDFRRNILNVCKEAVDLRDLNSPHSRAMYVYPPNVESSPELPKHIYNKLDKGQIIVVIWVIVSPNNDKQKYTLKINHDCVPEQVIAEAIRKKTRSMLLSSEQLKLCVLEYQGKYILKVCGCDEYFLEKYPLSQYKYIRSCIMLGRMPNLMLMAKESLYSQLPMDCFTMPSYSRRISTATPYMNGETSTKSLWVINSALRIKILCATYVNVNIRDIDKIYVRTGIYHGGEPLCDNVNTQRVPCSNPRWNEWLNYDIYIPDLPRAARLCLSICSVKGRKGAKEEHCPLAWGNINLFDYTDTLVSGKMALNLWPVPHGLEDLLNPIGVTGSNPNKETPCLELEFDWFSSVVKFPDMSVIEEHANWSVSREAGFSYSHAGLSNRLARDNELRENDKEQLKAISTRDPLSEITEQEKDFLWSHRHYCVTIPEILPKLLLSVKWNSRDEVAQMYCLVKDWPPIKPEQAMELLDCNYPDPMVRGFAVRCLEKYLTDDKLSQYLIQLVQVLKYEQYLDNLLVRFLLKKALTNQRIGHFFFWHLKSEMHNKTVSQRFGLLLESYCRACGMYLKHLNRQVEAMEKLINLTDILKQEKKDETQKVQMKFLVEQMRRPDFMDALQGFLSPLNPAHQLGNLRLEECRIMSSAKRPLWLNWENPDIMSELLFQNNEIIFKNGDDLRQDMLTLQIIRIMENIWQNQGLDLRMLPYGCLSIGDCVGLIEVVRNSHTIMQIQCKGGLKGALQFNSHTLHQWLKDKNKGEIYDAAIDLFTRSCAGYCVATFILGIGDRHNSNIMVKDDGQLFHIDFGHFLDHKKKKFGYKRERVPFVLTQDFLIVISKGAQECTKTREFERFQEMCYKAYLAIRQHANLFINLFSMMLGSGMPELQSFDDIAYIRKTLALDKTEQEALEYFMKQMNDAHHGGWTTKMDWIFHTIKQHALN
T1 sequence (P27986 whole entry partner): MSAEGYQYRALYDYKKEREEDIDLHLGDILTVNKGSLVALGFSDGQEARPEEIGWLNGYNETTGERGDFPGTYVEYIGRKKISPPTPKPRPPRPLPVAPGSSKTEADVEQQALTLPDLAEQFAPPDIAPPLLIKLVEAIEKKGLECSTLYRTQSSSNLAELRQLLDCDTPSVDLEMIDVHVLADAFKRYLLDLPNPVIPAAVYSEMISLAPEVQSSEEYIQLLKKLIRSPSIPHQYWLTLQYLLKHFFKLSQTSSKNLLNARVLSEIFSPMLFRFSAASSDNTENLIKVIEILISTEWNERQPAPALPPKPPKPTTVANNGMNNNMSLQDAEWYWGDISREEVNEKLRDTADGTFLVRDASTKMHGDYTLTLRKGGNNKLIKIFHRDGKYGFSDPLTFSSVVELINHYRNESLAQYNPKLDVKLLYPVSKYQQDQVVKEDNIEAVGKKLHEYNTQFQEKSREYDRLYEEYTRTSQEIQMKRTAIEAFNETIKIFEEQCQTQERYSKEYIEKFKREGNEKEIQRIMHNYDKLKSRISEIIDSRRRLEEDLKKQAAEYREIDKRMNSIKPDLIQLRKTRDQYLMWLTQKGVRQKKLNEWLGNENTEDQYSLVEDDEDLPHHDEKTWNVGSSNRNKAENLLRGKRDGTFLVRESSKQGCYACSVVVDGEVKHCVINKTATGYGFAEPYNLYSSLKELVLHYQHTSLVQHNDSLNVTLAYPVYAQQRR
T2 sequence (Q8NEB9 whole entry): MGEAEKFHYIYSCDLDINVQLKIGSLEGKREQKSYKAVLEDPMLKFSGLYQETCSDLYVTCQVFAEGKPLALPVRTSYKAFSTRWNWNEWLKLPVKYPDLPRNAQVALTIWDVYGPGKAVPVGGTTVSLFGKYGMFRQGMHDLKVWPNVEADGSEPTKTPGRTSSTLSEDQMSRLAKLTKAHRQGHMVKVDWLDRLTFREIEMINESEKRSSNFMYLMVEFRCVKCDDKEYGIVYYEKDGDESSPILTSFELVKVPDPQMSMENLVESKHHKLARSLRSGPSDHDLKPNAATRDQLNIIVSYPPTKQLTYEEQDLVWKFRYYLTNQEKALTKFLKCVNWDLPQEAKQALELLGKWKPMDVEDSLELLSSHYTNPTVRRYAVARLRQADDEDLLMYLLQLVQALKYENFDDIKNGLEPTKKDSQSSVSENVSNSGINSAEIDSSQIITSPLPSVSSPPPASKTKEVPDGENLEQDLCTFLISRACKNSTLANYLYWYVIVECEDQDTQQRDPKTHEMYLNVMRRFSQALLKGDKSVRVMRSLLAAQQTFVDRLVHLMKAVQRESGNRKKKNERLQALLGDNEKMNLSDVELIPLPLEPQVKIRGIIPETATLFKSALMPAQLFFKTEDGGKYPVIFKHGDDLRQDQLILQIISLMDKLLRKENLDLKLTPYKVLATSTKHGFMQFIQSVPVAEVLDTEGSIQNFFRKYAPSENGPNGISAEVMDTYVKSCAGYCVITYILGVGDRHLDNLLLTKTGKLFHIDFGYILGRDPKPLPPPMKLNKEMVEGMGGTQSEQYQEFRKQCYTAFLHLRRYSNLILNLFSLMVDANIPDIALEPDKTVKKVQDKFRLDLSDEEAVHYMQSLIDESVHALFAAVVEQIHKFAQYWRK
T3 sequence (P48736 whole entry): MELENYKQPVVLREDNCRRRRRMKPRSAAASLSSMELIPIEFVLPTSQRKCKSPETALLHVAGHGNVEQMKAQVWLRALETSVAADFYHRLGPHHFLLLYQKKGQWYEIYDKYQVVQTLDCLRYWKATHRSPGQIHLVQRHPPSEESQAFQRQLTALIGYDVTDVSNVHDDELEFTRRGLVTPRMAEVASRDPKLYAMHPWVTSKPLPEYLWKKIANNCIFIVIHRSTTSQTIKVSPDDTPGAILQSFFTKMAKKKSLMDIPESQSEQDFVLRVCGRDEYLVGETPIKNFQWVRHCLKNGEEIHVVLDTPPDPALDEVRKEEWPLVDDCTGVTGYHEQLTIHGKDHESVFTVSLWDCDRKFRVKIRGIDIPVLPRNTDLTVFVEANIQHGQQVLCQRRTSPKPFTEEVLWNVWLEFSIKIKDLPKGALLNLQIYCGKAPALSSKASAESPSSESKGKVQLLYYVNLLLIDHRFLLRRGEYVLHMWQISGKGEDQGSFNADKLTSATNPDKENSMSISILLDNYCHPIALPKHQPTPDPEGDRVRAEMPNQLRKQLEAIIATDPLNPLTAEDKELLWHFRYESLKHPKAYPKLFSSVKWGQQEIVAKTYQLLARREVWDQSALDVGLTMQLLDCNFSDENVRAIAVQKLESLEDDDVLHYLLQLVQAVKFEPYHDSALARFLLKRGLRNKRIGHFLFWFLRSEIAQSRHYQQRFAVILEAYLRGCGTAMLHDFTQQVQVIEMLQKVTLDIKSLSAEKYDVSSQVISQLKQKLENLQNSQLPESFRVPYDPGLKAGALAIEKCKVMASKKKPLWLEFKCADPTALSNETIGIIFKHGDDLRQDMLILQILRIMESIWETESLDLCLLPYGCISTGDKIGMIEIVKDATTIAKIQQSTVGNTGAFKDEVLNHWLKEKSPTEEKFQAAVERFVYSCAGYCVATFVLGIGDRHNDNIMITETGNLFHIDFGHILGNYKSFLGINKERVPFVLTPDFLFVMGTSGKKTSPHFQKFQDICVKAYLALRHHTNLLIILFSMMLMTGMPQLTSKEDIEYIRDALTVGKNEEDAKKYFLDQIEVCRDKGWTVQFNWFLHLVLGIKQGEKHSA
T4 sequence (P42338 whole entry): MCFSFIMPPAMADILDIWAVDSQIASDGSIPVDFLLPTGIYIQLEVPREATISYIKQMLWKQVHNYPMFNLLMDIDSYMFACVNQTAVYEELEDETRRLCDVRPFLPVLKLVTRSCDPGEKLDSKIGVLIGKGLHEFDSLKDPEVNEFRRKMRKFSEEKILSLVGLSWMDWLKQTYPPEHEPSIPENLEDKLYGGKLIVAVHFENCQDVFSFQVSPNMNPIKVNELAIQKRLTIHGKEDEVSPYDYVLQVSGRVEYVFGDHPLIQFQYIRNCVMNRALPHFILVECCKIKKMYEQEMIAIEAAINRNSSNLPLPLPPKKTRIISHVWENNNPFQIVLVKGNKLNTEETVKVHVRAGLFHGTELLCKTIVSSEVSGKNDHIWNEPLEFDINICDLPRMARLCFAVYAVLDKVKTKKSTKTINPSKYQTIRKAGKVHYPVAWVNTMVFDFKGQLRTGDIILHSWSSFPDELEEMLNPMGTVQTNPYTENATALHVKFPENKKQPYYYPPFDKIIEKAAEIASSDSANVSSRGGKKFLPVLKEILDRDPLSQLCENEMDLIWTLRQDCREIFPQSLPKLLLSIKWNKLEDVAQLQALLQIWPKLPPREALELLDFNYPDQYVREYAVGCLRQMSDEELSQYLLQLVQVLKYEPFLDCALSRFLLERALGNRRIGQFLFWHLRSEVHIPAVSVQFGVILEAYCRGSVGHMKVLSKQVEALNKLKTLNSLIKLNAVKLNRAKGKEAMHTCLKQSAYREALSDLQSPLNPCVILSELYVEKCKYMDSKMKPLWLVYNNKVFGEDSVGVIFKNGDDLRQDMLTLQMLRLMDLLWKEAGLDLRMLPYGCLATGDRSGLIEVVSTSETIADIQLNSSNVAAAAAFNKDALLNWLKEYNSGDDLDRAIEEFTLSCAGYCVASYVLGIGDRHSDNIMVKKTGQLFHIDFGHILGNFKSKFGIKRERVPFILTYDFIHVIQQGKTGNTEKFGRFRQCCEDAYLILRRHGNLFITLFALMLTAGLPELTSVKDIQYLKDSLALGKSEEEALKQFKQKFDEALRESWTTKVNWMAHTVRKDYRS
T4 sequence (P27986 whole entry partner): as the sequence (P27986 whole entry partner) above

Compound	inhibition at 1.11 µM (PI3Kalpha)	inhibition at 1.11 µM (VPS34)	inhibition at 1.11 µM (PI3Kgamma)	inhibition at 1.11 µM (PI3Kbeta)	inhibition at 1.11 µM (PI3Kdelta)	PI3Kalpha % inh (PI3Kalpha)	PI3Kbeta % inh (PI3Kbeta)	VPS34 % ihn (VPS34; at 1.11 μM)
O=C1NCCC(c2ccc(Cl)c(Cl)c2)c2cc(N3CCOCC3)sc21 (centres unmarked) [Compound 185, 4-(3,4-dichlorophenyl)-2-(morpholin-4-yl)-4,5,6,7-tetrahydro-8H-thieno[2,3-c]azepin-8-one]	27.7%	47.8%	53.4%	106%	110%			
O=C1CC(c2cccc(Cl)c2)c2cc(N3CCOCC3)sc21 (centres unmarked) [Compound 186]	15.1%	26.8%	23.3%	92.3%	74.9%			
N#Cc1c(N2CCOCC2)sc2c1C(c1ccc3ccccc3c1)CCNC2=O (centres unmarked) [Compound 188]	102%	12.9%	62.3%	117%	110%			
CC1(C)NC(=O)c2sc(-c3ccncc3)cc2C1c1ccc(Cl)cc1 (centres unmarked) [Compound 191, 4-(4-chlorophenyl)-5,5-dimethyl-2-(pyridin-4-yl)-5,6-dihydrothieno[2,3-c]pyridin-7(4H)-one]	9.58%	7.04%	6.39%	79.4%	30.3%			
CN1CC(c2ccc(Cl)cc2)c2cc(N3CCOCC3)sc2C1=O (centres unmarked) [Compound 198, 4-(4-chlorophenyl)-6-methyl-2-morpholino-5,6-dihydrothieno[2,3-c]pyridin-7(4H)-one]	8.93%	8.01%	14.9%	86.6%	62.9%			
O=C1NCCC(c2ccc3ccccc3c2)c2nc(N3CCOCC3)sc21 (centres unmarked) [Compound 209]		42.1%	49.5%		110%	81.32%	114.75%	
O=C1CCC(O)C(c2ccc(Cl)cc2)c2cc(-c3ccncc3)sc21 (centres unmarked) [Compound 210, 4-(4-chlorophenyl)-5-hydroxy-2-pyridin-4-yl-4,5,6,7-tetrahydro-8H-cyclohepta[b]thiophen-8-one]			5.88%	73%	34.6%	5.17%		−0.70%
